The text below walks through data of the OligoGym collection.

Oligonucleotides are written 5' to 3', each unit as a sugar letter and its base; * is a phosphorothioate linkage, no mark a phosphodiester; rarer units and linkages stand in square brackets, end groups in braces. Plain capitals give the bases only. d = 2'-deoxy (DNA); r = 2'-OH (RNA)

The target of the data set is UFC1. The data set can be described thus: reporter assay of Huesken 2005. Particulars: siRNA. (A reporter such as luciferase makes a cellular process visible.)
Further: test concentration or dose not given here.

As for “sense rArArGrGrArArCrUrCrGrGrUrGrGrUrUrUrGrGdTdT / antisense rCrCrArArArCrCrArCrCrGrArGrUrUrCrCrUrUdCdC”, the normalised inhibition (eCFP-eYFP dual reporter) turned out to be 32.2%.
In the case of “sense rArCrArArCrArArGrArArUrGrCrUrGrArCrArAdTdT / antisense rUrUrGrUrCrArGrCrArUrUrCrUrUrGrUrUrGrUdTdC” it was 86.4%; in that of “sense rArGrCrGrArCrUrGrArArGrGrArGrGrArArUrAdTdT / antisense rUrArUrUrCrCrUrCrCrUrUrCrArGrUrCrGrCrUdGdC”, 93.1%; in that of “sense rGrCrArGrUrUrCrCrUrGrArGrCrUrGrGrArUrGdTdT / antisense rCrArUrCrCrArGrCrUrCrArGrGrArArCrUrGrCdAdA”, 80.1%.
Next, “sense rArUrUrGrCrArGrUrUrCrCrUrGrArGrCrUrGrGdTdT / antisense rCrCrArGrCrUrCrArGrGrArArCrUrGrCrArArUdTdT”: 61.6%; “sense rGrGrGrUrGrCrArGrCrGrArCrUrGrArArGrGrAdTdT / antisense rUrCrCrUrUrCrArGrUrCrGrCrUrGrCrArCrCrCdAdC”: 85.9%; “sense rGrGrArCrUrArGrCrUrCrArUrCrUrCrArUrGrGdTdT / antisense rCrCrArUrGrArGrArUrGrArGrCrUrArGrUrCrCdAdA”: 61.7%.
In the case of “sense rArGrUrUrGrUrGrGrGrUrGrCrArGrCrGrArCrUdTdT / antisense rArGrUrCrGrCrUrGrCrArCrCrCrArCrArArCrUdCdA” it was 80.4%.
Consider “sense rGrUrArUrArUrCrCrArUrGrArCrCrUrCrCrUrGdTdT / antisense rCrArGrGrArGrGrUrCrArUrGrGrArUrArUrArCdCdA”, for which the normalised inhibition (eCFP-eYFP dual reporter) is 96%.
Next, “sense rUrUrGrGrArArArArUrGrCrUrGrGrUrArUrArUdTdT / antisense rArUrArUrArCrCrArGrCrArUrUrUrUrCrCrArAdAdC”: 56.8%; “sense rUrCrArGrUrCrCrCrUrUrArUrCrCrGrGrUrArUdTdT / antisense rArUrArCrCrGrGrArUrArArGrGrGrArCrUrGrAdTdA”: 88.9%; “sense rUrGrGrUrArUrArUrCrCrArUrGrArCrCrUrCrCdTdT / antisense rGrGrArGrGrUrCrArUrGrGrArUrArUrArCrCrAdGdC”: 31.4%.
In the case of “sense rArGrGrGrCrGrUrCrArUrCrCrArArCrArCrArAdTdT / antisense rUrUrGrUrGrUrUrGrGrArUrGrArCrGrCrCrCrUdTdC” it was 107%; in that of “sense rUrArCrUrGrCrCrCrCrArGrArArArUrUrGrCrAdTdT / antisense rUrGrCrArArUrUrUrCrUrGrGrGrGrCrArGrUrAdGdT”, 52.2%; in that of “sense rArCrUrGrArArGrGrArGrGrArArUrArUrCrArGdTdT / antisense rCrUrGrArUrArUrUrCrCrUrCrCrUrUrCrArGrUdCdG”, 75.2%.
In the case of “sense rCrArGrCrGrArCrUrGrArArGrGrArGrGrArArUdTdT / antisense rArUrUrCrCrUrCrCrUrUrCrArGrUrCrGrCrUrGdCdA” it was 100%; in that of “sense rGrArArUrGrUrGrCrCrCrArArArUrUrUrGrGrAdTdT / antisense rUrCrCrArArArUrUrUrGrGrGrCrArCrArUrUrCdCdT”, 67.9%.
“sense rArArArUrCrCrCrUrGrArUrCrUrGrArUrUrCrAdTdT / antisense rUrGrArArUrCrArGrArUrCrArGrGrGrArUrUrUdCdC”: the normalised inhibition (eCFP-eYFP dual reporter) came to 81%.
Next, “sense rCrCrGrGrUrArUrGrUrGrGrArGrArArCrArArCdTdT / antisense rGrUrUrGrUrUrCrUrCrCrArCrArUrArCrCrGrGdAdT”: 72.3%.
